Assay results as given in PMC5512454 (Bioorganic & medicinal chemistry, 2017).
One block for each compound: values may come before it.

How the values were obtained:
human D3 receptor = human D3 receptor (Homo sapiens, UniProt P35462); assay: Radioligand displacement assay, hD3
[1] = tested on: food-maintained responding; assay: Food-maintained behavior in rhesus monkeys; type: in vivo
[2] = tested on: cocaine-maintained responding; assay: Cocaine self-administration in rhesus monkeys; type: in vivo
[3] = target: D3 receptors in rat brain slices (Rattus norvegicus, UniProt P19020); assay: In-vitro autoradiography of coronal rat brain slices; type: binding; conditions: proven by displacement with BP897 (1 μM)
[4] = tested on: D3 receptors in rat brain; assay: Ex-vivo autoradiography of coronal rat brain sections; type: in vivo; conditions: co-injection of BP897; region of interest-to-background ratios; 60 min p.i.
[5] = tested on: dopamine D3 receptors in vivo; assay: PET imaging study in rat

human D3 receptor, sequence (P35462 whole entry): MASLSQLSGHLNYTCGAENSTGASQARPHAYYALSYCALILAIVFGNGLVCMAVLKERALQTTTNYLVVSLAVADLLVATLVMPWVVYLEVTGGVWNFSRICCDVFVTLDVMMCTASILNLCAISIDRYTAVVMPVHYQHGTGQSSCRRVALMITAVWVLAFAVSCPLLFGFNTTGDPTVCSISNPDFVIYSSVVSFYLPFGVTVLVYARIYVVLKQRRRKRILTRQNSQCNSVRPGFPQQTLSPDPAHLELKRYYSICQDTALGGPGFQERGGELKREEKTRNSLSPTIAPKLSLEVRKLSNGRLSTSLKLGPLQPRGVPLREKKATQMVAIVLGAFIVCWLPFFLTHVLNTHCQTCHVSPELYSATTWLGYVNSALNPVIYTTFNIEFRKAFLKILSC
D3 receptors in rat brain slices, sequence (P19020 whole entry): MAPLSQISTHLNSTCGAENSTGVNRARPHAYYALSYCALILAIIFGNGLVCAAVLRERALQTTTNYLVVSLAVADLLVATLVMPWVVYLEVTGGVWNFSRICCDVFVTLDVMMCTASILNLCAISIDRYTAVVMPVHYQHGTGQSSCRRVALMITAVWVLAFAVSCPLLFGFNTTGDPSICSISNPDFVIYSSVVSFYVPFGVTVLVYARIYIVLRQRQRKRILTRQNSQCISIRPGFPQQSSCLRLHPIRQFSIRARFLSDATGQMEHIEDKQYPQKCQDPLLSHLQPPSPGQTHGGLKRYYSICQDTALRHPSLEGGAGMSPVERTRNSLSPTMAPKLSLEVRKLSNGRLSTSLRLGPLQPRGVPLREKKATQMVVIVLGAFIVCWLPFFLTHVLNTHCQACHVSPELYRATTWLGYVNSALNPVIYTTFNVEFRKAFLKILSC

SMILES: CC(C)(C)c1nc(N2CCN(CCCCNC(=O)c3cc4ccccc4s3)CC2)cc(C(F)(F)F)n1 [Compound 9, N-(4-(4-(2-tert-butyl-6-(trifluoromethyl)pyrimidin-4-yl)piperazin-1-yl)butyl)benzo[b]thiophene-2-carboxamide]
D3 selectivity over all biogenic amine receptors investigated (human D3 receptor): 1000–20000 fold

SMILES: COc1ccccc1N1CCN(CCCCNC(=O)c2cc3ccccn3n2)CC1 [Compound 1]
Food-maintained responding following the i.v. self-administration component (food 2) ([1]; food 2): did not appreciably alter
Reduction of food-maintained behavior during food 1 session ([1]; pretreatment 0.32 mg/kg, food 1 (before cocaine component)): approximately 30%
Food 1 and 2 responding at low and intermediate doses ([1]; pretreatment 0.1 and 0.18 mg/kg): did not markedly decrease
Duration of action of behaviorally active doses ([1]; suggested from food 2 components in sessions of i.v. saline availability): < 2 h
Cocaine-maintained responding, % of control values ([2]; pretreatment 0.32 mg/kg, 0.03 mg/kg per injection i.v. cocaine, group average): approximately 20%
Effect of various pretreatment doses on cocaine-maintained responding ([2]; various doses (Figure S2)): dose-related decreases

Binding in rat brain slices, in-vitro autoradiography [3]: D3-specific binding
Radioligand displaced by BP897, third ventricle (3V) [4]: 5–14%
Brain uptake of the radioligand in CNS structures [5]: marginal brain uptake
Mean whole pituitary gland uptake of the radioligand ([5]; 40 min p.i.): 0.394 ± 0.016 % ID/g
SMILES: O=C(NCCCCN1CCN(c2ccccc2OCC[18F])CC1)c1cc2ccccn2n1 [[^18F]2, N-[4-[4-(2-[^18F]fluoroethoxyphenyl)-piperazin-1-yl]-butyl]-pyrazolo-[1,5-a]pyridin-2-carboxamide]
Blood-brain-barrier (BBB) penetration [5]: only low blood-brain-barrier (BBB) penetration
Reduction of uptake in the pituitary gland by pretreatment with BP897 [5]: 25%
